Test results as given in ChEMBL document CHEMBL1201862, “PubChem BioAssay data set” (2004).
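Method: 48-hour compound exposure of cells in 96-well plates, five concentrations, linear interpolation of endpoints. GI50: concentration for 50% inhibition of growth.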 The source made the active and inactive calls. Cut-off read from the data, not from the text of the source: active = GI50 up to about 1.1 µM and inactive = higher.

Assays:
Assay in all cases: inhibition of tumour cell growth, NCI panel, 48 h
OVCAR-4 = tested on: OVCAR-4
MCF7 = tested on: MCF7
HOP-62 = tested on: HOP-62
U-251 = tested on: U-251
HL-60 = tested on: HL-60
RXF 393 = tested on: RXF 393
786-0 = tested on: 786-0
Malme-3M = tested on: Malme-3M
SW-620 = tested on: SW-620
SF-539 = tested on: SF-539
A498 = tested on: A498
HCT-116 = tested on: HCT-116
UACC-257 = tested on: UACC-257
HCT-15 = tested on: HCT-15
OVCAR-8 = tested on: OVCAR-8
SK-MEL-2 = tested on: SK-MEL-2
MDA-MB-435 = tested on: MDA-MB-435
NCI-H226 = tested on: NCI-H226
SF-295 = tested on: SF-295
OVCAR-5 = tested on: OVCAR-5

SMILES	GI50 (OVCAR-4)	GI50 (MCF7)	GI50 (HOP-62)	GI50 (U-251)	GI50 (HL-60)	GI50 (RXF 393)	GI50 (786-0)	GI50 (Malme-3M)	GI50 (SW-620)	GI50 (SF-539)	GI50 (A498)	GI50 (HCT-116)	GI50 (UACC-257)	GI50 (HCT-15)	GI50 (OVCAR-8)	GI50 (SK-MEL-2)	GI50 (MDA-MB-435)	GI50 (NCI-H226)	GI50 (SF-295)	GI50 (OVCAR-5)
COc1ccc(CNc2ccn(C3OC(CO)C(O)C3O)c(=O)n2)cc1 (stereo not given)	37.2 µM (inactive)	72.9 µM (inactive)	> 100 µM (inactive)	> 100 µM (inactive)	27.2 µM (inactive)	> 100 µM (inactive)	> 100 µM (inactive)	> 100 µM (inactive)	> 100 µM (inactive)	> 100 µM (inactive)	> 100 µM (inactive)	55.5 µM (inactive)	49.8 µM (inactive)	> 100 µM	> 100 µM (inactive)	> 100 µM (inactive)	44.8 µM (inactive)	> 100 µM (inactive)	> 100 µM (inactive)	> 100 µM (inactive)
C=C(C)C(=O)O[C@H]1CC2(CO)O[C@@H]2CC/C(COC(C)=O)=C/C2OC(=O)C(=C)[C@@H]21 (stereo not given in full)	39.6 µM (inactive)	11.4 µM (inactive)	> 100 µM (inactive)	> 100 µM (inactive)	8.67 µM (inactive)	12.1 µM (inactive)	20.2 µM (inactive)	23.4 µM (inactive)	19.6 µM (inactive)	74.8 µM (inactive)	> 100 µM (inactive)	18.2 µM (inactive)	20 µM (inactive)	26.2 µM	22 µM (inactive)	52.4 µM (inactive)	31.8 µM (inactive)	> 46.1 µM (inactive)	> 100 µM (inactive)	> 100 µM (inactive)
O=P1(NCCCl)OCCCN1CCCl (stereo not given) [IFOSFAMIDE]	415 µM (inactive)	361 µM (inactive)	341 µM (inactive)	310 µM (inactive)	320 µM (inactive)	376 µM (inactive)	> 428 µM (inactive)	330 µM (inactive)	340 µM (inactive)	355 µM (inactive)	428 µM (inactive)	401 µM (inactive)	345 µM (inactive)	376 µM	388 µM (inactive)	382 µM (inactive)	> 500 µM (inactive)	393 µM (inactive)	374 µM (inactive)	407 µM (inactive)
COc1c2ccccc2c(OC)c2nc(C)ccc12	> 100 µM (inactive)	> 74 µM (inactive)	> 100 µM (inactive)	42.5 µM (inactive)	26.8 µM (inactive)	> 100 µM (inactive)	51.9 µM (inactive)	> 93.5 µM (inactive)	> 100 µM (inactive)	> 100 µM (inactive)	> 100 µM (inactive)	> 80.2 µM (inactive)	> 77.3 µM (inactive)	41.3 µM	> 100 µM (inactive)	> 100 µM (inactive)	> 100 µM (inactive)	> 100 µM (inactive)	> 100 µM (inactive)	> 100 µM (inactive)
CCCCCC(=O)Nc1[nH]nnc1C#N	> 100 µM (inactive)	> 100 µM (inactive)	> 100 µM (inactive)	> 100 µM (inactive)	> 100 µM (inactive)	> 100 µM (inactive)	> 100 µM (inactive)	> 100 µM (inactive)	> 100 µM (inactive)	> 100 µM (inactive)	> 100 µM (inactive)	> 100 µM (inactive)	> 100 µM (inactive)	> 100 µM	> 100 µM (inactive)	> 100 µM (inactive)	> 100 µM (inactive)	> 100 µM (inactive)	> 100 µM (inactive)	> 100 µM (inactive)
O=C1C[C@@H](Sc2ccccc2)C2(OCCO2)C2ON3CCCC[C@H]3[C@H]12 (stereo not given in full)	7.73 µM (inactive)	6.32 µM (inactive)	16.5 µM (inactive)	4.73 µM (inactive)	1.67 µM (inactive)	4.48 µM (inactive)	3.53 µM (inactive)	8.41 µM (inactive)	3.63 µM (inactive)	1.94 µM (inactive)	30.5 µM (inactive)	4.33 µM (inactive)	14.2 µM (inactive)	2.81 µM	3.87 µM (inactive)	18.1 µM (inactive)	11.7 µM (inactive)	13.8 µM (inactive)	15.9 µM (inactive)	17.7 µM (inactive)
Cn1c(-c2ccccc2)cc2c3ccsc3c3ccsc3c21	> 100 µM (inactive)	4.75 µM (inactive)	> 100 µM (inactive)	> 100 µM (inactive)	> 100 µM (inactive)	> 100 µM (inactive)	79.3 µM (inactive)	> 100 µM (inactive)	> 100 µM (inactive)	> 100 µM (inactive)	> 100 µM (inactive)	> 100 µM (inactive)	> 100 µM (inactive)	29.2 µM	> 100 µM (inactive)	> 100 µM (inactive)	> 100 µM (inactive)	> 100 µM (inactive)	> 100 µM (inactive)	> 100 µM (inactive)
CC(C)(C)OC(=O)NC(CCCCNC(=O)OCc1ccccc1)C(=O)NCCNc1ccc(NCCNC(=O)C(CCCCNC(=O)OCc2ccccc2)NC(=O)OC(C)(C)C)c2c1C(=O)c1ccccc1C2=O (stereo not given)	> 100 µM (inactive)	6.97 µM (inactive)	23.9 µM (inactive)	3.18 µM (inactive)	1.02 µM (active)	25.7 µM (inactive)	> 56.9 µM (inactive)	> 86.3 µM (inactive)	70.6 µM (inactive)	17.6 µM (inactive)	> 100 µM (inactive)	24.5 µM (inactive)	> 100 µM (inactive)	> 100 µM	8.36 µM (inactive)	6.44 µM (inactive)	31.5 µM (inactive)	> 86.5 µM (inactive)	> 93.8 µM (inactive)	> 100 µM (inactive)
CCOC(=O)N[C@H]1CCc2cc(OC)c(OC)c(OC)c2-c2ccc(SC)c(=O)cc21	16 µM (inactive)	< 0.01 µM (active)	< 0.01 µM (active)	< 0.01 µM (active)	< 0.01 µM (active)	< 0.01 µM (active)	< 0.01 µM (active)	< 0.01 µM (active)	< 0.01 µM (active)	< 0.01 µM (active)	< 0.01 µM (active)	< 0.01 µM (active)	16.6 µM (inactive)	< 0.01 µM	< 0.01 µM (active)	< 0.01 µM (active)	< 0.01 µM (active)	0.163 µM (active)	< 0.01 µM (active)	0.317 µM (active)
COc1ccc2c(c1)c1nn(CCN(C)C)c3ccc4c(=O)n(CCN(C)C)c(=O)n2c4c13	< 0.01 µM (active)	< 0.0158 µM (active)	< 0.01 µM (active)	< 0.01 µM (active)	0.042 µM (active)	0.133 µM (active)	< 0.01 µM (active)	0.0904 µM (active)	< 0.01 µM (active)	0.169 µM (active)	0.114 µM (active)	< 0.01 µM (active)	0.208 µM (active)	< 0.01 µM	< 0.01 µM (active)	0.0323 µM (active)	< 0.019 µM (active)	0.125 µM (active)	< 0.01 µM (active)	< 0.0223 µM (active)
CCOC(=O)c1cc2nc3ccccc3c(=O)n2c2ccccc12	> 10 µM (inactive)	> 10 µM (inactive)	> 10 µM (inactive)	> 10 µM (inactive)	> 10 µM (inactive)	> 10 µM (inactive)	> 10 µM (inactive)	> 10 µM (inactive)	> 10 µM (inactive)	> 10 µM (inactive)	> 10 µM (inactive)	> 10 µM (inactive)	> 10 µM (inactive)	> 10 µM	> 10 µM (inactive)	> 10 µM (inactive)	> 10 µM (inactive)	> 10 µM (inactive)	> 10 µM (inactive)	> 10 µM (inactive)
CC(C)(C)OC[C@H](O)CC#N	> 100 µM (inactive)	> 100 µM (inactive)	> 100 µM (inactive)	> 100 µM (inactive)	> 100 µM (inactive)	> 100 µM (inactive)	> 100 µM (inactive)	> 100 µM (inactive)	> 100 µM (inactive)	> 100 µM (inactive)	> 100 µM (inactive)	> 100 µM (inactive)	> 100 µM (inactive)	> 100 µM	> 100 µM (inactive)	> 100 µM (inactive)	> 100 µM (inactive)	> 100 µM (inactive)	> 100 µM (inactive)	> 100 µM (inactive)
NC(CS)C(=O)NCCNc1ccc(NCCNC(=O)C(N)CS)c2c1C(=O)c1c(O)ccc(O)c1C2=O (stereo not given)	0.204 µM (active)	0.00402 µM (active)	0.00361 µM (active)	0.00579 µM (active)	0.00175 µM (active)	0.191 µM (active)	0.00662 µM (active)	0.0653 µM (active)	0.0292 µM (active)	0.0259 µM (active)	0.0771 µM (active)	0.0391 µM (active)	0.857 µM (active)	0.112 µM	0.0225 µM (active)	0.427 µM (active)	0.483 µM (active)	0.00847 µM (active)	0.00782 µM (active)	0.481 µM (active)
Nc1ccc(Cc2ccc(N)c(C(=O)O)c2)cc1C(=O)O	> 100 µM (inactive)	> 100 µM (inactive)	> 100 µM (inactive)	> 100 µM (inactive)	> 100 µM (inactive)	> 100 µM (inactive)	> 100 µM (inactive)	> 100 µM (inactive)	> 100 µM (inactive)	> 100 µM (inactive)	> 100 µM (inactive)	> 100 µM (inactive)	> 100 µM (inactive)	> 100 µM	> 100 µM (inactive)	> 100 µM (inactive)	> 100 µM (inactive)	> 100 µM (inactive)	> 100 µM (inactive)	> 100 µM (inactive)
